# Test results: US20220184073A1, “USE OF A H3R INVERSE AGONIST FOR THE TREATMENT OF SHIFT WORK DISORDER” (Novartis AG, priority 2017, published 2022)
# “Also recorded” adds a separate entry of the source.
# Assays:
# histamine in CSF = test: Histamine (HA) in CSF after single oral dose in healthy volunteers (LC-MS); assay type: in vivo, human; settings: for model adjusted geometric mean ratio to baseline of histamine in CSF: 100 mg single oral dose (free form); for Comparison of treatment vs placebo, Estimate (geometric ratio), histamine in CSF: 100 mg single oral dose vs placebo
# Protocol: (§1) A randomized, double-blind, placebo-controlled, parallel group, exploratory study of single oral doses of Compound (I) (free form) was conducted in healthy volunteers (HVs) to investigate the pharmacodynamic effect of Compound (I) on the release of neurotransmitters in the brain. A total of 16 subjects were enrolled into the study, which was part of a first-in-human (FIH) study.
# (§2) Subjects were randomized in a 1:1 ratio to receive either a single dose of Compound (I) or placebo.
# (§3) On study Day 1 in the afternoon (approximately at 16:00), the HVs underwent lumbar puncture and a spinal catheter was placed for repeated cerebrospinal fluid (CSF) sampling. The spinal catheter was placed under strict surgical aseptic conditions, as per best practice standards, by a board certified anesthesiologist. Two CSF samples were collected before administration of the study drug (Compound (I) or placebo). Study drug was administered in the evening (approximately at 18:00). Thereafter, 10 more CSF samples were collected during 16 hrs following drug administration. The exact timing of sampling (0.5, 1, 1.5, 2, 3, 4, 6, 8, 12 and 16 hr post dose). During the same period, blood samples were also collected for pharmacokinetic (PK) analysis. The subjects remained at bed rest during the CSF sampling procedure and for about 24 hr afterwards. The following safety precautions were taken: (1) proper hydration of the subjects was ensured; (2) the catheter insertion site was assessed on a regular basis for early signs of local infection or CSF leakage; (3) prophylactic interventions/treatments to reduce the risk of venous thrombosis was considered by the Investigator.
# (§4) The dose of Compound (I) (free form) administered to the subjects was 100 mg. Safety, tolerability and PK assessments were made up to 72 hr post dose. Subjects were allowed to leave the study center on Study Day 4 at the discretion of the Investigator, if there were no prohibitive safety findings. The subjects were asked to return to the study site for the study completion evaluation. Safety assessments included physical examinations, electrocardiograms (ECGs), vital signs, standard clinical laboratory evaluations (hematology, blood chemistry, and urinalysis), adverse events (AEs) and serious adverse events (SAEs) monitoring.
# (§5) Biomarkers related to pharmacodynamic (PD) effect of Compound (I) (e.g. histamine [HA], tele-methylhistamine [tMeHA]) were measured in the CSF using LC-MS method.
# LC-MS conditions for histamine (%=percent by volume): Acquity Binary Solvent Manager/Applied Biosystems API 5000; Mobile Phase A: acetonitrile, B: 10 mM ammonium formate pH3; Gradient: 10%A for 0.25 min, increase to 15%A within 0.25 min, increase to 25%A within 4 min, increase to 90%A within 0.10 min, 90%A for 0.9 min, back to 10%A within 0.10 min, 10%A for 2.40 min; Run time: 8 min; Flow rate: 0.35 mL/min; Analytical column: Acquity BEH C18, 150×2.1 mm, 1.7 μm; Temperature: 30° C. The desired compound histamine LC-MS: Rt=3.85 min, m/z 246 (M+H)^+
# (§6) The effect of Compound (I) on CSF biomarkers was assessed using mixed models for repeated measures (MMRM). These parameters were log transformed and analyzed using a model including treatment and timepoint, the treatment*timepoint interaction term, and log transformed baseline as fixed effects. An unstructured residual covariance matrix within subjects was considered as desirable, but an alternative covariance structure (autoregressive) was used due to a lack of fit. The mean difference versus placebo (and its 90% CI) was calculated at each dose level. These were back-transformed to give a geometric ratio (and its 90% CI) between each dose and placebo.
# Subjects: The study population comprised of male and female (of non-child bearing potential) healthy volunteers (HVs) 18-55 years of age. […] BMI=Body weight (kg)/[Height (m)]2. Subjects were able to communicate well with the Investigator, to understand and comply with the requirements of the study. […]
# [1] = test system: tele-methylhistamine in CSF; test: tele-methylhistamine (tMeHA) in CSF after single oral dose in healthy volunteers (LC-MS); assay type: in vivo, human; settings: for model adjusted geometric mean ratio to baseline of tele-methylhistamine in CSF: 100 mg single oral dose (free form); for Comparison of treatment vs placebo, Estimate (geometric ratio), tele-methylhistamine in CSF: 100 mg single oral dose vs placebo
# Protocol: as §1, §2, §3, §4, §5
# LC-MS conditions for tele-methyl-histamine (%=percent by volume): Acquity Binary Solvent Manager/Applied Biosystems API 5000; Mobile Phase A: acetonitrile, B: 10 mM ammonium formate pH9; Gradient: 15%A for 0.25 min, increase to 25%A within 4.75 min, increase to 90%A within 0.10 min, 90%A for 0.50 min, back to 15%A within 0.10 min, 15%A for 0.60 min; Run time: 6.3 min; Flow rate: 0.65 mL/min; Analytical column: Acquity BEH C18, 150×2.1 mm, 1.7 μm; Temperature: 70° C. The desired compound tele-methyl-histamine LC-MS: Rt=4.66 min, m/z 260 (M+H)^+
# Compound (I) can induce histamine release in a subject and thereby promote wakefulness. The tMeHA is the direct breakdown product of HA and can thus be used as a marker for HA release. In animals, the half-life of HA is about 20 minutes. Therefore HA is not an ideal mechanistic PD marker for Compound (I). due to its short half-life. […] Due to its slower breakdown, tMeHA was expected to be a more useful PD marker of Compound (I) activity than HA itself.
# as §6, with “The mean difference versus placebo (and its 90% CI) was calculated at each dose level. These were back-transformed to give a geometric ratio (and its 90% CI) between each dose and placebo.” left out
# [2] = SWD patients; N. Engl. J. Med., 2005, 353, 476-486; cited from earlier work
# [3] = healthy volunteers, 0.5 hr post-dose
# [4] = healthy volunteers, 1.0 hr post-dose
# [5] = healthy volunteers, 1.5 hr post-dose
# [6] = healthy volunteers, 2.0 hr post-dose
# [7] = healthy volunteers, 3.0 hr post-dose
# [8] = healthy volunteers, 4.0 hr post-dose
# [9] = healthy volunteers, 6.0 hr post-dose
# [10] = healthy volunteers, 8.0 hr post-dose
# [11] = healthy volunteers, 12.0 hr post-dose
# [12] = healthy volunteers, 16.0 hr post-dose
smiles,measurement,setting,value
"Cn1nc(N2CCC(OC(=O)N3CCN(C4CCC4)CC3)CC2)ccc1=O [Compound (I), 1-(1-methyl-6-oxo-1,6-dihydropyridazin-3-yl)piperidin-4-yl 4-cyclobutylpiperazine-1-carboxylate]",model adjusted geometric mean ratio to baseline of histamine in CSF,histamine in CSF; 0.5 hr post-dose,1.27
same,model adjusted geometric mean ratio to baseline of histamine in CSF,histamine in CSF; 1.0 hr post-dose,1.09
same,model adjusted geometric mean ratio to baseline of histamine in CSF,histamine in CSF; 1.5 hr post-dose,0.95
same,model adjusted geometric mean ratio to baseline of histamine in CSF,histamine in CSF; 2.0 hr post-dose,1.02
same,model adjusted geometric mean ratio to baseline of histamine in CSF,histamine in CSF; 3.0 hr post-dose,1.01
same,model adjusted geometric mean ratio to baseline of histamine in CSF,histamine in CSF; 4.0 hr post-dose,0.73
same,model adjusted geometric mean ratio to baseline of histamine in CSF,histamine in CSF; 6.0 hr post-dose,0.63
same,model adjusted geometric mean ratio to baseline of histamine in CSF,histamine in CSF; 8.0 hr post-dose,0.83
same,model adjusted geometric mean ratio to baseline of histamine in CSF,histamine in CSF; 12.0 hr post-dose,0.84
same,model adjusted geometric mean ratio to baseline of histamine in CSF,histamine in CSF; 16.0 hr post-dose,0.92
same,"Comparison of treatment vs placebo, Estimate (geometric ratio), histamine in CSF",histamine in CSF; 0.5 hr post-dose,1.16
same,"Comparison of treatment vs placebo, Estimate (geometric ratio), histamine in CSF",histamine in CSF; 1.0 hr post-dose,0.96
same,"Comparison of treatment vs placebo, Estimate (geometric ratio), histamine in CSF",histamine in CSF; 1.5 hr post-dose,0.97
same,"Comparison of treatment vs placebo, Estimate (geometric ratio), histamine in CSF",histamine in CSF; 2.0 hr post-dose,0.99
same,"Comparison of treatment vs placebo, Estimate (geometric ratio), histamine in CSF",histamine in CSF; 3.0 hr post-dose,1.15
same,"Comparison of treatment vs placebo, Estimate (geometric ratio), histamine in CSF",histamine in CSF; 4.0 hr post-dose,0.79
same,"Comparison of treatment vs placebo, Estimate (geometric ratio), histamine in CSF",histamine in CSF; 6.0 hr post-dose,0.64
same,"Comparison of treatment vs placebo, Estimate (geometric ratio), histamine in CSF",histamine in CSF; 8.0 hr post-dose,1.14
same,"Comparison of treatment vs placebo, Estimate (geometric ratio), histamine in CSF",histamine in CSF; 12.0 hr post-dose,1.14
same,"Comparison of treatment vs placebo, Estimate (geometric ratio), histamine in CSF",histamine in CSF; 16.0 hr post-dose,0.82
same,"mean CSF HA levels, treatment vs placebo (in words)","histamine in CSF; free form, 100 mg, single dose, 16 hrs observation",No clear trend of a difference; also recorded: No treatment response was detected
same,between group difference in CSF tMeHA (statistical significance),[1]; at 1.5 hrs post dose and at all subsequent sampling points,statistically significant
same,time for which mean CSF tMeHA level was increased compared to baseline,"[1]; healthy volunteers, 100 mg single oral dose",about 10 hrs
same,model adjusted geometric mean ratio to baseline of tele-methylhistamine in CSF,[1]; [3],1.01
same,model adjusted geometric mean ratio to baseline of tele-methylhistamine in CSF,[1]; [4],1.17
same,model adjusted geometric mean ratio to baseline of tele-methylhistamine in CSF,[1]; [5],1.30
same,model adjusted geometric mean ratio to baseline of tele-methylhistamine in CSF,[1]; [6],1.73
same,model adjusted geometric mean ratio to baseline of tele-methylhistamine in CSF,[1]; [7],1.64
same,model adjusted geometric mean ratio to baseline of tele-methylhistamine in CSF,[1]; [8],1.21
same,model adjusted geometric mean ratio to baseline of tele-methylhistamine in CSF,[1]; [9],1.59
same,model adjusted geometric mean ratio to baseline of tele-methylhistamine in CSF,[1]; [10],1.20
same,model adjusted geometric mean ratio to baseline of tele-methylhistamine in CSF,[1]; [11],0.79
same,model adjusted geometric mean ratio to baseline of tele-methylhistamine in CSF,[1]; [12],1.04
same,"Comparison of treatment vs placebo, Estimate (geometric ratio), tele-methylhistamine in CSF",[1]; [3],1.02
same,"Comparison of treatment vs placebo, Estimate (geometric ratio), tele-methylhistamine in CSF",[1]; [4],1.10
same,"Comparison of treatment vs placebo, Estimate (geometric ratio), tele-methylhistamine in CSF",[1]; [5],1.39
same,"Comparison of treatment vs placebo, Estimate (geometric ratio), tele-methylhistamine in CSF",[1]; [6],1.77
same,"Comparison of treatment vs placebo, Estimate (geometric ratio), tele-methylhistamine in CSF",[1]; [7],1.88
same,"Comparison of treatment vs placebo, Estimate (geometric ratio), tele-methylhistamine in CSF",[1]; [8],1.63
same,"Comparison of treatment vs placebo, Estimate (geometric ratio), tele-methylhistamine in CSF",[1]; [9],1.85
same,"Comparison of treatment vs placebo, Estimate (geometric ratio), tele-methylhistamine in CSF",[1]; [10],2.14
same,"Comparison of treatment vs placebo, Estimate (geometric ratio), tele-methylhistamine in CSF",[1]; [11],2.45
same,"Comparison of treatment vs placebo, Estimate (geometric ratio), tele-methylhistamine in CSF",[1]; [12],1.57
same,"mean tMeHA level in CSF / ratio to baseline, treatment vs placebo (in words)","[1]; healthy volunteers, 100 mg single oral dose, entire observation period",higher; also recorded: robust increase
"NC(=O)C[S+]([O-])C(c1ccccc1)c1ccccc1 (stereo not drawn) [modafinil, 2-(benzhydrylsulfinyl)acetamide]",mean sleep latency (MSLT),[2],modest but statistically significant improvement
